Experiment: xn = mol fraction of the nth substance listed
Settings: Liquid, Falling or rolling sphere viscometry

Cc1ccccc1 [toluene] + CCO
viscosity [mPa·s]
Settings	x2 = 0.125	x2 = 0.25	x2 = 0.375	x2 = 0.5	x2 = 0.625	x2 = 0.75	x2 = 0.875
293.15 K, 100 kPa	0.588	0.609	0.652	0.71	0.79	0.899	1.023
293.15 K, 20000 kPa	0.68	0.71	0.754	0.815	0.909	1.014	1.157
293.15 K, 40000 kPa	0.781	0.816	0.866	0.931	1.034	1.152	1.306
293.15 K, 60000 kPa	0.893	0.931	0.986	1.055	1.166	1.297	1.457
293.15 K, 80000 kPa	1.016	1.054	1.114	1.187	1.302	1.444	1.604
293.15 K, 100000 kPa	1.153	1.189	1.251	1.331	1.449	1.6	1.757
313.15 K, 100 kPa	0.462	0.471	0.49	0.525	0.574	0.635	0.717
313.15 K, 20000 kPa	0.538	0.549	0.573	0.611	0.662	0.729	0.825
313.15 K, 40000 kPa	0.619	0.632	0.658	0.699	0.757	0.83	0.932
313.15 K, 60000 kPa	0.705	0.718	0.747	0.792	0.854	0.933	1.039
313.15 K, 80000 kPa	0.796	0.81	0.841	0.889	0.955	1.038	1.147
313.15 K, 100000 kPa	0.893	0.907	0.94	0.991	1.058	1.145	1.255
333.15 K, 100 kPa	0.37	0.373	0.385	0.405	0.431	0.468	0.523
333.15 K, 20000 kPa	0.433	0.437	0.45	0.47	0.501	0.544	0.603
333.15 K, 40000 kPa	0.499	0.503	0.518	0.54	0.573	0.621	0.684
333.15 K, 60000 kPa	0.568	0.571	0.588	0.611	0.647	0.697	0.763
333.15 K, 80000 kPa	0.639	0.643	0.662	0.686	0.724	0.776	0.844
333.15 K, 100000 kPa	0.714	0.718	0.739	0.763	0.804	0.856	0.926
353.15 K, 100 kPa	0.306	–	–	–	–	–	–
353.15 K, 20000 kPa	0.358	0.356	0.361	0.372	0.39	0.415	0.453
353.15 K, 40000 kPa	0.412	0.411	0.417	0.427	0.446	0.476	0.516
353.15 K, 60000 kPa	0.468	0.467	0.474	0.484	0.504	0.536	0.577
353.15 K, 80000 kPa	0.526	0.525	0.532	0.541	0.564	0.597	0.64
353.15 K, 100000 kPa	0.588	0.586	0.593	0.601	0.625	0.66	0.703
